For two compounds, IC50 results are on record in ChEMBL document CHEMBL5727401, “Mixed lineage kinase inhibitors for HIV/AIDS therapies” (2019).

The target of the test is Mitogen-activated protein kinase kinase kinase 11 (Homo sapiens, UniProt Q16584). The test can be described thus: Radiometric Filter Plate MLK3 Assay: 200 ng (130 nM) MLK3 (Dundee, DU8313) was incubated with 1 μM inactive MKK7b (Dundee, DU703) in the presence of 2 μM cold ATP (Km) and 0.5 μCi/assay 33P ATP and appropriate concentrations of compounds. After a twenty minute incubation, the reactions were washed through filter plates and read on a scintillation counter.
Mitogen-activated protein kinase kinase kinase 11, sequence (Q16584 whole entry): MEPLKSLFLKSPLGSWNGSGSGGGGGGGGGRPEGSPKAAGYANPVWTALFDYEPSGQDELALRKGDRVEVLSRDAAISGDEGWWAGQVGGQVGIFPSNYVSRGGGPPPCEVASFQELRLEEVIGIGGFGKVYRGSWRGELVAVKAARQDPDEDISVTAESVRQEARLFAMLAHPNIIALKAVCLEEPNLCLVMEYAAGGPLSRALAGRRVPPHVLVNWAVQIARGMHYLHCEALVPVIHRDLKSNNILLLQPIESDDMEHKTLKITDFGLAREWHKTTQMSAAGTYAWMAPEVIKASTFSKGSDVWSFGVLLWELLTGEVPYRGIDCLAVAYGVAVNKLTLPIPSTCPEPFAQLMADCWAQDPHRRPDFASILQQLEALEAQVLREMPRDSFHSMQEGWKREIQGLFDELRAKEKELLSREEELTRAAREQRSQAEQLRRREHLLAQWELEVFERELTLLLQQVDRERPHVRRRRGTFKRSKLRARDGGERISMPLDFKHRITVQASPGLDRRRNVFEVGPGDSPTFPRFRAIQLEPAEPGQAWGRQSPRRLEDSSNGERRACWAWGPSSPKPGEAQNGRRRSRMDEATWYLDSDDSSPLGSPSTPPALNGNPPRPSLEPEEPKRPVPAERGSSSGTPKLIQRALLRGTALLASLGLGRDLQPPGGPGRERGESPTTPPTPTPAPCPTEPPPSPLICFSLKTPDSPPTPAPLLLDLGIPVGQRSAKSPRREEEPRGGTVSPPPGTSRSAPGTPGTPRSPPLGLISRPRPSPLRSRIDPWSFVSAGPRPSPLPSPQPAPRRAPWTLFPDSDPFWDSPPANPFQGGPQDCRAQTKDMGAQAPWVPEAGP

With `CN1CCN(Cc2ccc(-c3cnc4[nH]cc(-c5cnc6[nH]ccc6c5)c4c3)cc2)CC1`, the IC50 was less than 100 nM.

Consider `c1cn(Cc2ccc(-c3cnc4[nH]cc(-c5ccc6[nH]ccc6c5)c4c3)cc2)cn1`, for which the IC50 is less than 100 nM.

In general, IC50 refers to the concentration needed to halve the response being measured.
